Assay results from patent publication US6087118A, “Method for diagnosing alzheimer's disease” (priority 1999, dated 2000).
“Also recorded” adds a separate entry of the source.

How the values were obtained:
[1] = system: K+ channels in human platelets; test: Thrombin-stimulated 86Rb+ efflux from perfused platelets; format: cell-based; conditions: for Effect on thrombin-stimulated 86Rb+ efflux, pooled data (FIGS. 1a, 2a) / Inhibition of thrombin-stimulated 86Rb+ efflux in 8 of 11 control subjects / Inhibition of thrombin-stimulated 86Rb+ efflux in the other three control subjects: control subjects; for Effect on thrombin-stimulated 86Rb+ efflux, pooled data (FIGS. 1a, 2a): n=11, P<0.0001; for Effect on thrombin-stimulated 86Rb+ efflux, pooled data (FIGS. 1a, 2a) / Effect on thrombin-stimulated 86Rb+ efflux, pooled data (FIGS. 1b, 2b) / Inhibition in controls (%) of thrombin-stimulated 86Rb+ efflux / Inhibition in Alzheimer's disease (%) of thrombin-stimulated 86Rb+ efflux: thrombin 0.3 IU/ml, apamin 100 nM, charybdotoxin 300 nM, α-dendrotoxin 200 nM; for Inhibition of thrombin-stimulated 86Rb+ efflux in 8 of 11 control subjects: the 8 of 11 that responded; for Inhibition of thrombin-stimulated 86Rb+ efflux in the other three control subjects: the other 3 of 11 (minimal effects); for Inhibition of thrombin-stimulated 86Rb+ efflux in 9 of 12 patients with AD: 9 of 12 (minimal effects); for Inhibition of thrombin-stimulated 86Rb+ efflux in the other three patients with AD: the other 3 of 12; for Effect on thrombin-stimulated 86Rb+ efflux, pooled data (FIGS. 1b, 2b): patients with Alzheimer's disease, n=12; for Inhibition in controls (%) of thrombin-stimulated 86Rb+ efflux: platelets of age- and sex-matched controls; for Inhibition in controls (%) of thrombin-stimulated 86Rb+ efflux / Inhibition in Alzheimer's disease (%) of thrombin-stimulated 86Rb+ efflux: median (interquartile range); for Inhibition in Alzheimer's disease (%) of thrombin-stimulated 86Rb+ efflux: platelets of patients with AD
Method: (§1) Platelet perfusion^17. Blood was drawn by venepuncture and anticoagulated with acid-citratedextrose (ACD). Platelets were prepared by centrifugation within an hour of venesection and incubated with ^86 Rb^+ for 2 h. The platelet suspension (2.5×10^7 platelets per ml) was then injected into perfusion chambers, where the cells settled and became immobilized on inert filters (Millipore). The platelets were then continuously perfused with Krebs solution, to allow them to stabilize for 20 min before the start of each experiment. The perfusion buffer was then changed for 5 min to Krebs solution containing thrombin (0.3 IU/ml) or ionomycin (1 μM), after which the perfusion was switched to the original solution and continued for another 20 min. From 0 to 10 min after the addition of thrombin or ionomycin the perfusate was collected at 1-min intervals and thereafter at 2-min intervals. The solutions used for perfusion were bubbled with 95% O2 and 5% CO2 throughout the experiment (pH 7.4). At the end of the experiment the polycarbonate filters were retrieved and placed in scintillation vials, to which 3.5 ml of Aquasafe 500 scintillation fluid was added. The radioactivity in the perfusates and filters was determined by liquid scintillation counting in a Beckmann LS 6000 SE counter and the loss of radioactivity from the cells was calculated. The amount of ^86 Rb^+ (pmol) in each fraction of perfusate collected was determined using the specific activity of the isotope. The radioactivity was measured in each fraction and the results were plotted as the cumulative efflux of ^86 Rb^+ against time.
(§2) Buffers and drucas. ACD contained citric acid (15 g), trisodium citrate (25 g), and dextrose (20 g) in 1 l of distilled water. Krebs buffer contained (mmol/l): NaCl (119); KCl (4.6); CaCl2 (1.5); NaH2 PO4 (1.2); MgCl2 (1.2); NaHCO3 (15); and glucose (11). Apamin, charybdotoxin, α-dendrotoxin, iberiotoxin, ionomycin, and human thrombin were purchased from Sigma Chemical Company, Poole, Dorset. ^86 RbCl was purchased from Amersham International plc (Amersham, Bucks).
(§3) Thrombin and ionomycin. Solutions of thrombin were prepared freshly in distilled water for each experiment and further diluted to a concentration of 0.3 IU/ml in Krebs solution. Stock solutions of ionomycin (10 mM in dimethylsulphoxide) were prepared and stored in aliquots at 4° C. On the day of the experiment ionomycin was further diluted in Krebs solution to a concentration of 1 μM.
(§4) Apamin, charybdotoxin, iberiotoxin, and α-dendrotoxin. Apamin, charybdotoxin, iberiotoxin, and α-dendrotoxin were […]. Apamin, (100 nM), charybdotoxin (300 nM), iberiotoxin (300 nM), and α-dendrotoxin (200 nM) were reconstituted in distilled water and stored in aliquots at -20° C. On the day of the experiment the toxins were further diluted in Krebs solution. Apamin was pre-incubated with the platelets (added at time -20 min) and charybdotoxin, iberiotoxin, and α-dendrotoxin were added with thrombin (at 0 min) for a period of 5 min.
(§5) Data Dresentation and analysis. The results in FIGS. 1-3 are shown as cumulative effluxes of ^86 Rb^+ from 0 to 14 min. The data are shown as means±SEMs (n=number of experiments with platelets obtained from different volunteers). The efflux data were analyzed using analysis of variance with repeated measures.
(§6) K^+ channel fluxes. Platelets were prepared and their K^+ channel fluxes studied as described by DeSilva, H. A. et al^17, by loading fresh platelets with ^86 Rb^+ (used as a radioactive analogue of K^+)^18,19 and stimulating ^86 Rb^+ efflux with thrombin and ionomycin.

[2] = system: K+ channels in human platelets; test: Ionomycin-stimulated 86Rb+ efflux from perfused platelets; format: cell-based; conditions: for Effect on ionomycin-stimulated 86Rb+ efflux, pooled data (FIG. 3a) / Inhibition of ionomycin-stimulated 86Rb+ efflux in 9 of 11 control subjects / Inhibition of ionomycin-stimulated 86Rb+ efflux in two control subjects: control subjects; for Effect on ionomycin-stimulated 86Rb+ efflux, pooled data (FIG. 3a) / Effect on ionomycin-stimulated 86Rb+ efflux, pooled data (FIG. 3b): n=11; for Effect on ionomycin-stimulated 86Rb+ efflux, pooled data (FIG. 3a) / Effect on ionomycin-stimulated 86Rb+ efflux, pooled data (FIG. 3b) / Inhibition in controls (%) of ionomycin-stimulated 86Rb+ efflux / Inhibition in Alzheimer's disease (%) of ionomycin-stimulated 86Rb+ efflux: ionomycin 1 μM, apamin 100 nM, charybdotoxin 300 nM; for Effect on ionomycin-stimulated 86Rb+ efflux, pooled data (FIG. 3a): P<0.0001; for Inhibition of ionomycin-stimulated 86Rb+ efflux in 9 of 11 control subjects: the 9 of 11 that responded; for Inhibition of ionomycin-stimulated 86Rb+ efflux in two control subjects: the other 2 of 11 (minimal effects); for Inhibition of ionomycin-stimulated 86Rb+ efflux in 8 of 11 patients with AD: 8 of 11 (minimal effects); for Effect on ionomycin-stimulated 86Rb+ efflux, pooled data (FIG. 3b): patients with Alzheimer's disease, P=0.883; for Inhibition in controls (%) of ionomycin-stimulated 86Rb+ efflux: platelets of age- and sex-matched controls; for Inhibition in controls (%) of ionomycin-stimulated 86Rb+ efflux / Inhibition in Alzheimer's disease (%) of ionomycin-stimulated 86Rb+ efflux: median (interquartile range); for Inhibition in Alzheimer's disease (%) of ionomycin-stimulated 86Rb+ efflux: platelets of patients with AD
Method: as §1, §2, §3, §4, §5, §6

sodium/potassium pump = test: Uptake of 86Rb+ by platelets; format: cell-based, human; conditions: unpublished observations of de Silva & Aronson

In the case of `CC(C)C[C@@H]1NC(=O)[C@H](C)NC(=O)[C@H]([C@@H](C)O)NC(=O)[C@H](CCC(=O)O)NC(=O)[C@@H]2CCCN2C(=O)[C@H](C)NC(=O)[C@H](CCCCN)NC(=O)[C@@H]2CSSC[C@@H](C(=O)N[C@@H](CCC(N)=O)C(=O)N[C@@H](CCC(N)=O)C(=O)N[C@@H](Cc3cnc[nH]3)C(N)=O)NC(=O)[C@H](CCCNC(=N)N)NC(=O)[C@H](CCCNC(=N)N)NC(=O)[C@H](C)NC(=O)[C@H](CSSC[C@H](N)C(=O)N[C@@H](CC(N)=O)C(=O)N2)NC1=O` [Apamin], the “Effect on thrombin-stimulated 86Rb+ efflux, pooled data (FIGS. 1a, 2a)” value (shortened to “Effect … (FIGS. 1a, 2a)”) [1] is reported as “inhibited”, the “Effect … (FIGS. 1a, 2a)” value ([1]; listed as apamin) is reported as “significant reductions” and the “Inhibition of thrombin-stimulated 86Rb+ efflux in 8 of 11 control subjects” value [1] is reported as “at least 18%”. For the same compound, the “Inhibition of thrombin-stimulated 86Rb+ efflux in the other three control subjects” value [1] was “less than 10%”, the “Inhibition of thrombin-stimulated 86Rb+ efflux in 9 of 12 patients with AD” value [1] was “less than 10%” and the “Inhibition of thrombin-stimulated 86Rb+ efflux in the other three patients with AD” value [1] was “at least 16%”. For the same compound, the “Effect on thrombin-stimulated 86Rb+ efflux, pooled data (FIGS. 1b, 2b)” value (shortened to “Effect … (FIGS. 1b, 2b)”) [1] was “no significant effect”, the “Effect … (FIGS. 1b, 2b)” value ([1]; listed as apamin) was “neither apamin nor charybdotoxin caused significant reductions” and the “Inhibition in controls (%) of thrombin-stimulated 86Rb+ efflux” value [1] was 26 (20-27) %. For the same compound, the “Inhibition in Alzheimer's disease (%) of thrombin-stimulated 86Rb+ efflux” value [1] was 0 (0-0) %, the “Effect on ionomycin-stimulated 86Rb+ efflux, pooled data (FIG. 3a)” value (shortened to “Effect … (FIG. 3a)”) [2] was “inhibited” and the “Effect … (FIG. 3a)” value ([2]; listed as apamin) was “significant reductions”. For the same compound, the “Inhibition of ionomycin-stimulated 86Rb+ efflux in 9 of 11 control subjects” value [2] was “at least 18%”, the “Inhibition of ionomycin-stimulated 86Rb+ efflux in two control subjects” value [2] was “less than 12%” and the “Inhibition of ionomycin-stimulated 86Rb+ efflux in 8 of 11 patients with AD” value [2] was “less than 12%”. For the same compound, the “Effect on ionomycin-stimulated 86Rb+ efflux, pooled data (FIG. 3b)” value (“Effect … (FIG. 3b)” below) [2] was “no significant effect”, the “Effect … (FIG. 3b)” value ([2]; listed as apamin) was “minimal effects” and the “Inhibition in controls (%) of ionomycin-stimulated 86Rb+ efflux” value ([2]; iberiotoxin 300 nM) was 30 (20-31) %. The “Inhibition in Alzheimer's disease (%) of ionomycin-stimulated 86Rb+ efflux” value ([2]; iberiotoxin 300 nM) was 1 (0-20) %.
In the case of `C[C@@H]1O[C@@H](O[C@H]2C[C@@H](O)[C@]3(CO)[C@H]4[C@H](O)C[C@]5(C)[C@@H](C6=CC(=O)OC6)CC[C@]5(O)[C@@H]4CC[C@]3(O)C2)[C@H](O)[C@H](O)[C@H]1O` [ouabain], the “Share of 86Rb+ uptake in platelets inhibitable by ouabain” value (sodium/potassium pump) is reported as “over 90%”.
charybdotoxin was tested, and the “Effect … (FIGS. 1a, 2a)” value [1] was “inhibited; also recorded: significant reductions”, the “Inhibition of thrombin-stimulated 86Rb+ efflux in 8 of 11 control subjects” value [1] was no less than 16% and the “Inhibition of thrombin-stimulated 86Rb+ efflux in the other three control subjects” value [1] was “less than 10%”. The “Inhibition of thrombin-stimulated 86Rb+ efflux in 9 of 12 patients with AD” value [1] was “less than 10%”, the “Inhibition of thrombin-stimulated 86Rb+ efflux in the other three patients with AD” value [1] was “at least 16%” and the “Effect … (FIGS. 1b, 2b)” value [1] was “no significant effect; also recorded: neither apamin nor charybdotoxin caused significant reductions”. The “Inhibition in controls (%) of thrombin-stimulated 86Rb+ efflux” value [1] was 22 (18-29) %, the “Inhibition in Alzheimer's disease (%) of thrombin-stimulated 86Rb+ efflux” value [1] was 0 (0-4) % and the “Effect … (FIG. 3a)” value [2] was “inhibited; also recorded: significant reductions”. The “Inhibition of ionomycin-stimulated 86Rb+ efflux in 9 of 11 control subjects” value [2] was no less than 22%, the “Inhibition of ionomycin-stimulated 86Rb+ efflux in two control subjects” value [2] was “less than 12%” and the “Inhibition of ionomycin-stimulated 86Rb+ efflux in 8 of 11 patients with AD” value [2] was “less than 12%”. The “Effect … (FIG. 3b)” value [2] was “no significant effect; also recorded: minimal effects”, the “Inhibition in controls (%) of ionomycin-stimulated 86Rb+ efflux” value ([2]; iberiotoxin 300 nM) was 28 (20-34) % and the “Inhibition in Alzheimer's disease (%) of ionomycin-stimulated 86Rb+ efflux” value ([2]; iberiotoxin 300 nM) was 4 (1-26) %.
For “iberiotoxin (QFTDVDCSVSKECWSVCKDLFGVDRGKCMGKKCRCYQ; UniProt P24663 1-37, looked up) [purchased from Sigma]”, the “Effect on ionomycin-stimulated effluxes in platelets from any individual” value ([2]; patients with AD and controls, iberiotoxin 300 nM) was “no effect”, the “Inhibition in controls (%) of ionomycin-stimulated 86Rb+ efflux” value ([2]; iberiotoxin 300 nM) was 2 (0-3) % and the “Inhibition in Alzheimer's disease (%) of ionomycin-stimulated 86Rb+ efflux” value ([2]; iberiotoxin 300 nM) was 0 (0-4) %.
α-dendrotoxin was tested, and the “Effect … (FIGS. 1a, 2a)” value [1] was “inhibited”, the “Effect … (FIGS. 1b, 2b)” value [1] was “inhibited” and the “Inhibition in controls (%) of thrombin-stimulated 86Rb+ efflux” value [1] was 26 (20-29) %. For the same compound, the “Inhibition in Alzheimer's disease (%) of thrombin-stimulated 86Rb+ efflux” value [1] was 19 (18-27) %.
